From US4242354A, “2-(2-Thenolythio)-propionylglycine: method for its preparation and pharmaceutical formulations containing said compound” (Mediolanum Farmaceutici S.r.L., priority 1978, dated 1980)

Legend:
bromobenzene poisoning = test: Protective activity in the bromobenzene poisoning; format: in vivo, male rats (Sprague-Dawley)
Method: Fifty male rats (Sprague-Dawley, 180-200 g bodyweight) were used for the investigation, subdivided into 5 groups, each consisting of 10 animals, given orally the following compounds
(1) 5 percent gum arabic in tap water
(2) 5 percent gum arabic in tap water
(3) 2-(2-thenoylthio)-propionylglycine--200 mg/kg
(4) 2-(2-thenoylthio)-propionylglycine--300 mg/kg
Seven days later, the animals of the groups 2-3-4-[…] were given bromobenzene subcutaneously (150 mg/rat) while the remaining group (control) was given an equivalent volume of saline. Still seven days later, 5 of the animals of each group were given Nembutal (25 mg/kg/intraperitoneally), and the sleeping time was calculated.
The remaining 5 animals of each group were given bromophthalein at the dose of 50 mg intravenously; thirty minutes later, the animals were sacrificed and both the present bromophthalein and SGPT (serum glutamic pyruvic transaminase) were established in the blood.

physchem = test: physchem
Method: (§1) The stability tests were carried out according to the Rogers' nonisothermic method suitably integrated by the evaluation of physical data, melting point, weight variation, and spectrophotometric assay. For each single compound, the tests were performed on a series of samples, with the weight of 100 milligrams, added for the wet tests with 1 ml of distilled water. […] The sample were kept in a thermostat at increasing temperatures, i.e. from 25° to 80° C. […] The temperature, programmed according to the Rogers' formula, resulted to be 40° C. at the end of the first hour, 50° C. at the end of the second hour, 57° C. at the end of the third hour, 63° C. at the end of the fourth hour, 69° C. at the end of the fifth hour, 73° C. at the end of the sixth hour, 77° C. at the end of the seventh hour and, as already specified, 80° C. at the end of the eighth hour.
In the case of the wet-treated samples, the final weight was only established on the samples No. 10 brought to dryness at 60° C. under vacuum after an 8-hour heating.

elderly patients = format: in vivo, man
Method: The drug was assessed, with respect to its mucolytic action, on thirty elderly patients ([…], maximal 87, mean age 72). […] The improvement was assessed on the basis of the following parameters:
decrease of the daily quantity of sputum;
decrease of the viscosity of the sputum;
increase of the Tiffeneau's index;
improved value of the erythrocyte sedimentation rate.
A group of twenty patients, in the same mean age, was given for control purposes a known drug such as N-acetylcysteine.

mercuric chloride = test: In vivo protective action against mercurial compounds; design: species or system male mice (Swiss strain); conditions: mercuric chloride 20 mg/kg ip, mice, 24 hours
Method: Forty male mice (Swiss strain, 22 grams mean bodyweight) were used for the investigation, subdivided into 4 groups treated as follows:
(1) mercuric chloride, 20 mg/kg/intraperitoneally;
(4) mercuric chloride 20 mg/kg/intraperitoneally+2-thiopropionylglycine 300 mg/kg/intraperitoneally.
Deaths occurred were recorded hourly in the first 5 hours, and thereafter after 24 hours.

[1] = tested on: bronchopneumopathies of the pediatric age; test: Clinical trials in pediatry, mucolytic efficacy in bronchopneumopathies; format: in vivo, man; conditions: decrease from 292.4±92.1 g/Hg, pediatric patients
[2] = Stability test: melting point before and after heating; format: physicochemical
Method: as §1
The melting point was established in a capillary tube, under identical conditions, on the samples No. 5 after heating for 8 hours in the previously specified conditions, and on the samples No. 10 after heating and evaporation to dryness as previously specified.

[3] = Solubility and organoleptic properties; format: physicochemical
[4] = Rogers' nonisothermic method: energies of activation, specific velocities, validity periods; format: physicochemical; conditions: for stability vs 2-thiopropionylglycine (II): comparison of the two compounds
Method: as §1
The data shown in Table 7 were worked out according to the Rogers' method, drawing up the values of the energies of activation of the decomposition reactions under dry and wet conditions, the specific rate constants as well as the validity period.

[5] = tested on: carbon tetrachloride poisoning; test: Protective activity in the carbon tetrachloride poisoning; format: in vivo, male rats (Sprague-Dawley)
Method: Fifty male rats (Sprague-Dawley, 180-200 grams bodyweight) were used for the investigation, subdivided into 5 groups: one group was given no treatment while the remaining 4 groups were poisoned for 7 consecutive days with CCl4 at the dosage of […] given subcutaneously.

CC(SC(=O)c1cccs1)C(=O)NCC(=O)O (stereo not drawn) [compound (I), 2-(2-thenoylthio)-propionylglycine]
serum concentrations of SGPT (bromobenzene poisoning; oral, 200 and 300 mg/kg, bromobenzene-poisoned rat): significant reduction of the serum concentrations of SGPT
liver impairment induced by bromobenzene (bromobenzene poisoning; oral, 200 and 300 mg/kg, rat): able to reduce the liver impairment
sleeping time (Nembutal) (bromobenzene poisoning; oral, 200 and 300 mg/kg, Nembutal 25 mg/kg ip): statistically significant decrease of the sleeping time
rate of excretion of bromophthalein (bromobenzene poisoning; vs poisoned controls, bromophthalein 50 mg iv, 30 minutes): less evident
Content (physchem): 100.0%
E at 292 nm (physchem; as such): 0.438
remaining at 1.5 h (physchem; dry): 99.8%
remaining at 3 h (physchem; dry): 99.8%
remaining at 5.25 h (physchem; dry): 100%
remaining at 8 h (physchem; dry): 99.8%
E at 292 nm (physchem; sample 1, dry): 0.440
E at 292 nm (physchem; sample 2, dry): 0.435
E at 292 nm (physchem; sample 3, dry): 0.440
E at 292 nm (physchem; sample 4, dry): 0.440
E at 292 nm (physchem; sample 6, wet): 0.455
E at 292 nm (physchem; sample 7, wet): 0.450
E at 292 nm (physchem; sample 8, wet): 0.435
E at 292 nm (physchem; sample 9, wet): 0.412
rapidity of action vs N-acetylcysteine (elderly patients; elderly patients): markedly better in terms of rapidity of action
fit of cough on aerosol administration (elderly patients; in vivo): no fit of cough was observed
patients with a marked improvement (elderly patients; of thirty elderly patients, two suppositories daily, each 0.36 grams, six days): Twenty-six
deaths (mercuric chloride; 200 mg/kg ip): 10%
deaths (mercuric chloride; 300 mg/kg ip): 10%
mean viscosimetric value of the mucus after treatment [1]: 155.4±61.3 g/Hg
melting point variation ([2]; after heating): no variations
Final m.p. wet conditions (Sample 10) ([2]; after heating 8 hours wet and evaporation to dryness): 166-167 °C
Final m.p. dry conditions (Sample 5) ([2]; after heating for 8 hours, dry): 166-167 °C
Initial m.p. ([2]; before heating): 166-167 °C
odor [3]: odorless
taste [3]: practically tasteless
appearance in water ([3]; 100 milligrams with 1 ml of distilled water): white suspension
solubility ([3]; all other inorganic solvents (so in the source)): scarcely soluble
solubility ([3]; chloroform): soluble
solubility ([3]; saturated solution of NaHCO3): soluble
stability vs 2-thiopropionylglycine (II) ([4]; listed as 2-(2-thenoylthio)-propionyl-glycine (I)): markedly better stability
stability vs 2-thiopropionylglycine (II) ([4]; listed as 2-(2-thenoylthio)-propionylglycine (I)): markedly more stable than the correspondent 2-thiopropionylglycine (II)
Energy of activation of the decomposition reaction ([4]; dry): 12.28 kcal/mol
Validity period ([4]; dry): unlimited
K at 25° (specific rate constant) ([4]; dry, 25°): 0 h⁻¹
Energy of activation of the decomposition reaction ([4]; wet): 13.27 kcal/mol
liver weight increase consequent to CCl4 ([5]; CCl4 0.5 ml/mg sc, 7 days, drugs intramuscularly, (I) 200 and 300 mg/kg, (II) 300 mg/kg): can prevent the liver weight increase
efficacy in comparison with 2-mercaptopropionylglycine ([5]; equivalent dosage, CCl4 poisoning, rat): statistically significant efficacy in preventing the liver weight increase as well as in reducing the liver fats levels
